Patent US20110183942A1, “Methods and Compositions for Treating Alzheimer's Disease” (UNIVERSITY OF MEDICINE AND DENTISTRY OF NEW JERSEY, priority 2008, published 2011)

Legend:
[1] = test system: hippocampal Schaffer collateral-CA1 synapses; experiment: Field recording of fEPSP (mGluR-LTD) in acute hippocampal slices; assay type: cell-based, mouse; conditions: for DHPG-LTD (fEPSP slope): t=75 min
Procedure: For recording, slices were placed in a submersion recording chamber and perfused with 30° C. ACSF at a rate of 2 ml/min.
fEPSPs were recorded with extracellular recording electrodes (1.0 MΩ) filled with ACSF and placed in the stratum radiatum of area CA1. Synaptic responses were evoked by a 200-μsec current pulse to Schaffer collateral axons with a concentric bipolar tungsten stimulating electrode. Stable baseline responses were collected every 30 sec by using a stimulation intensity (10-30 μA) yielding 50-60% of the maximal fEPSP slope response.
mGluR-LTD was induced by a mGluR1/5 agonist, (R,S)-3,5-DHPG (Tocris), or by electrical stimulations. […] NMDAR dependent-LTD was induced by using 900 single pulses delivered at 1 Hz.

[2] = test system: surface AMPA receptor (GluR2/3, GluR1) in cultured neurons; experiment: Surface biotinylation assay of AMPA receptor subunits; assay type: cell-based, mouse; conditions: DHPG 5 min
Procedure: For surface biotinylation, drug-treated cortical neurons were cooled on ice, washed twice with ice-cold PBS++ (1× PBS, 1 mM CaCl2, 0.5 mM MgCl2) and then incubated with PBS++ containing 1 mg/ml Sulfo-NHS-SSBiotin (Pierce) for 30 min at 4° C. Unreacted biotin was quenched by washing cells three times with PBS++ containing 100 mM Glycine (pH 7.4) (briefly once and for 5 min twice). Cultures were harvested in RIPA buffer and sonicated. Homogenates were centrifuged at […] for 20 min at 4° C. Fifteen % of supernatant was saved as the total protein. […] Precipitates were washed with RIPA buffer three times (5 min each time). All procedures were done at 4° C.

[3] = test system: Arc protein in DIV14 hippocampal neurons; experiment: Arc immunocytochemistry in cultured hippocampal neurons; assay type: cell-based, mouse
Procedure: Immunocytochemistry of cultured neurons was performed as described (Shepherd et al., Neuron, 52, 475-484 (2006)). Briefly, DIV14 primary hippocampal neurons were fixed in fixation solution (4% paraformaldehyde, 4% sucrose containing 1× PBS) for 20 min at 4° C. and were permeabilized with 0.2% Triton X-100 in PBS for 10 min 4° C. Cells were then blocked for 1 hr at room temperature in 10% normal goat serum (NGS). Primary antibodies were diluted (1:250 of phospho-eEF2 antibody, 1:500 of PSD95, 1:300 for Arc) in 10% NGS and incubated with neurons for overnight at 4° C. Alexa 488, or Alexa 555-conjugated secondary antibodies (1:500; Molecular Probes) were diluted in 10% NGS and incubated at room temperature for 1 hr. Coverslips were mounted with PermaFluor containing DAPI (Invitrogen). All images were taken with same exposure and setting using Zeiss 510 Meta confocal microscope. Quantification of Arc levels was carried out using Image J software. For the measurement of dendritic Arc levels, average pixel intensity was measured in the primary dendrites 20 μm away from the soma.

[4] = test system: GluR1-containing AMPA receptors in primary hippocampal neurons; experiment: AMPA receptor trafficking (surface and internalized GluR1 labeling); assay type: cell-based, mouse
Procedure: (§1) Labeling of surface or internalized pool of AMPA receptor was performed as described with minor modifications (Shepherd, et al., Neuron, 52, 475-484 (2006)). Briefly, surface GluR1-containing AMPA receptors were then labeled by adding 2.5 μg of GluR1-N JH1816 pAb to the neuronal growth media and were subsequently incubated at 37° C. for 15 or 60 minutes after 5 min DHPG application. To visualize surface and internalized GluR1, Alexa 555 secondary was added in excess live at 10° C. Neurons were fixed, permeabilized and subsequently exposed to Alexa 488 secondary to stain internalized receptors (background in the non-permeabilized control was negligible).
as §1, with “DIV 14-21 mouse primary hippocampal cultures were incubated in neuronal growth media containing 50 μMDHPG for 5 minutes and then washed” for “Labeling of surface or internalized pool of AMPA receptor was performed as described”, “new growth media. Surface” for “minor modifications (Shepherd, et al., Neuron, 52, 475-484 (2006)). Briefly, surface”
Quantification of surface GluR1 puncta was carried out using Image J software. Images were acquired as multi-channel TIFF files with a dynamic range of 4096 gray levels (12-bit binary; MultiTrack acquisition for confocal) using metamorph software on a Zeiss LSM 510 confocal microscope. To measure punctate structures neurons were thresholded by gray value at a level close to 50% of the dynamic range. Background noise from these images was negligible. All puncta were treated as individual objects and the characteristics of each, such as area and average fluorescence, were logged measured. The Data reflected in FIGS. 1B-C was an example of one representative experiment. The total intensity of GluR1 levels were normalized to control, untreated neurons at 60 min. Significance was determined by a paired Student's t-test.

eEF2K-mGluR5 interaction = target: T1, eEF2K-mGluR5 interaction (Mus musculus, UniProt Q3UVX5); experiment: Co-immunoprecipitation of mGluR5 with eEF2K in synaptoneurosomes; conditions: WT forebrain synaptoneurosomes, DHPG 20 min
T1 construct: confirmed that native mGluR5 associated with eEF2K; from tissue; host or cells: mouse forebrain synaptoneurosomes
T1 sequence (Q3UVX5 21-1203 limits assumed): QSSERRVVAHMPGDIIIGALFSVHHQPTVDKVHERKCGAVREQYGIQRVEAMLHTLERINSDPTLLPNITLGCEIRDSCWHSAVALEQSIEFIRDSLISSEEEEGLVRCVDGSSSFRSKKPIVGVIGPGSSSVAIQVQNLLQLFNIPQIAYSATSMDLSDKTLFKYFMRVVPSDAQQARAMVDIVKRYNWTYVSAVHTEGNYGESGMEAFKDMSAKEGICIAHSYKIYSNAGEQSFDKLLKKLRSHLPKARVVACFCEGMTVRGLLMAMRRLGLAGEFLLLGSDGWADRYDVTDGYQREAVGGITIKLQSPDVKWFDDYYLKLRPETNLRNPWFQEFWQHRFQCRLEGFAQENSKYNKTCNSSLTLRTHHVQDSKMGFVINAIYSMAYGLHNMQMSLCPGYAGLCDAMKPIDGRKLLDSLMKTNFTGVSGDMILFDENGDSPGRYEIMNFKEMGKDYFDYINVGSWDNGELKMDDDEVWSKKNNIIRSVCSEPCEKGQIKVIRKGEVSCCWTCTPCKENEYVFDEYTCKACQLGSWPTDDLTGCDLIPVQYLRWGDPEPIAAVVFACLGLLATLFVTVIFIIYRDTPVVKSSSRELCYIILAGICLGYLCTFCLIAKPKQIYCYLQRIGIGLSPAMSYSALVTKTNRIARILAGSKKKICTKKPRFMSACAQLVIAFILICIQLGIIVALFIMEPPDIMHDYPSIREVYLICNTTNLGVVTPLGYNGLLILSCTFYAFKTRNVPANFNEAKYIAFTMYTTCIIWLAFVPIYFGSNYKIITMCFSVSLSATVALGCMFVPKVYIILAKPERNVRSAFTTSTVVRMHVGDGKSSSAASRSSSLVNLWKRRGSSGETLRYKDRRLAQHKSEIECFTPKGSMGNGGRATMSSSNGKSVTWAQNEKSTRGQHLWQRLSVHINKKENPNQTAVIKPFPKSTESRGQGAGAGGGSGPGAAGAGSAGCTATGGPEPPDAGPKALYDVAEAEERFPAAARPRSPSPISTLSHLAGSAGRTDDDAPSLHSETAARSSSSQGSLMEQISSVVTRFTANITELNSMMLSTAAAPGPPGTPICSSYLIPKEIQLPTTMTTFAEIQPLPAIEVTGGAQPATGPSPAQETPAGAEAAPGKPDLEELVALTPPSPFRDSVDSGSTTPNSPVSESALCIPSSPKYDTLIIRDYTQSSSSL

reduction of ratio of surface to total GluR2/3 ([2]; WT neurons): ~30%
reduction of ratio of surface to total GluR2/3 ([2]; eEF2K KO neurons): did not significantly reduce
internalized GluR1 ([4]; Arc KO neurons, after DHPG): did not exhibit changes
surface GluR1 ([4]; Arc KO neurons, after DHPG): did not exhibit any changes
internalized GluR1 ([4]; WT cultures, 15 min after 5 min DHPG): increase of internalized GluR1
surface GluR1 ([4]; WT hippocampal cultures, 15 min and 60 min after 5 min DHPG): loss of surface GluR1
co-IP of mGluR5 with eEF2K (eEF2K-mGluR5 interaction): decreased the co-IP of mGluR5
Structure (SMILES): NC(C(=O)O)c1cc(O)cc(O)c1 (racemic) [DHPG, (R,S)-3,5-DHPG]
fEPSP slope after DHPG ([1]; Arc KO slices, DHPG 50 μM 5 min, t=70 min): 92.1±3.7 % of baseline
fEPSP slope after DHPG ([1]; Arc KO slices, DHPG 100 μM 5 min, t=90 min): 88.5±7.4 % of baseline
DHPG-LTD (fEPSP slope) ([1]; Arc/Fmr1 DKO slices, DHPG 50 μM 5 min): 85.9±4.1 % of baseline
DHPG-LTD (fEPSP slope) ([1]; FVB WT slices, DHPG 50 μM 5 min): 73.0±6.6 % of baseline
DHPG-LTD (fEPSP slope) ([1]; Fmr1 KO slices, DHPG 50 μM 5 min): 68.2±2.6 % of baseline
fEPSP slope after DHPG ([1]; WT slices (littermates of Arc KO), DHPG 50 μM 5 min, t=70 min): 72.8±2.0 % of baseline
fEPSP slope after DHPG ([1]; WT slices (littermates of eEF2K KO), DHPG 50 μM 5 min, t=90 min): 64.7±5.2 % of baseline
fEPSP slope after DHPG ([1]; WT slices, DHPG 100 μM 5 min, t=90 min): 64.4±2.6 % of baseline
fEPSP slope after DHPG ([1]; eEF2K KO slices, DHPG 50 μM 5 min, t=90 min): 108.7±3.6 % of baseline
Arc immunoreactivity in dendrites ([3]; DHPG 50 μM 5 min, relative to untreated dendrites): 1.58±0.095
Arc immunoreactivity in cell body ([3]; DHPG 50 μM 5 min, relative to untreated soma): 1.34±0.063
level of Arc in soma or dendrites after DHPG ([3]; eEF2K KO hippocampal neurons): did not change the level of Arc
